23 compounds from patent publication US11453690B2, “Receptor inhibitor, pharmaceutical composition comprising same, and use thereof” (BEIJING TIDE PHARMACEUTICAL CO., LTD., priority 2018, dated 2022) can be followed below.

Test [1] deals with AT2 Receptor (AT2R) (Homo sapiens (Human), UniProt P50052). In words: Measurement of inhibitory activity on AT2 receptor (Tag-lite HTRF, Tb-labeled AT2R cells, angiotensin receptor red agonist). To be noted: 1 h room temperature. In kind it is binding.
Test [2] concerns the target AT1 Receptor (AT1R) (Homo sapiens (Human), UniProt P30556). Briefly: Measurement of inhibitory activity on AT1 receptor (Tag-lite HTRF, Tb-labeled AT1R cells, angiotensin receptor red agonist). In kind it is binding. The settings on record: 1 h room temperature. Here is the method: Measurement of Inhibitory Activity on AT1 Receptor ([…])/AT2 Receptor (AT2R)
Through the following steps, the inhibitory activity of the compound on AT1R/AT2R (IC50 value) was determined:
1) An appropriate amount of 1×TLB (Tag-lite Buffer) was prepared and well mixed for use.
2) The compound was diluted by 10 times with ddH2O or DMSO. The compound was then dilute to 4 times of the working concentration with 1×TLB and mixed well for use.
3) 8600 nM Tag-lite angiotensin receptor red agonist was diluted to 12 nM (4×Kd) with 1×TLB.
4) 5 ml 1×TLB was taken into a 15 ml centrifuge tube.
5) After thawing 1 tube of Tb-labeled AT1R/AT2R cells in a 37° C. water bath, the cells were quickly transferred to the 1×TLB in step 4), mixed gently, and centrifuged at 1200 g for 5 minutes at room temperature.
6) The supernatant was aspirated gently, and the cells were resuspended and mixed in 2.7 ml 1×TLB, and then placed at room temperature until use.
7) 10 μl cells were added to all test wells, and 5 μl 4× working solution of the compound from step 2) was added to the corresponding test wells. 5 μl 4× Tag-lite angiotensin receptor red agonist well diluted in step 3) was added to all test wells.
8) After leaving the reaction plate at room temperature for 1 h, data were measured and analyzed using Envision HTRF Reader, and the half inhibitory concentration (IC50) of the compound on AT1R/AT2R was calculated with the GraphPad Prism four-parameter equation.
A general note: TR-FRET usually uses a lanthanide donor and a delayed reading to cut background.

Sequence of AT2 Receptor (AT2R) (P50052 whole entry): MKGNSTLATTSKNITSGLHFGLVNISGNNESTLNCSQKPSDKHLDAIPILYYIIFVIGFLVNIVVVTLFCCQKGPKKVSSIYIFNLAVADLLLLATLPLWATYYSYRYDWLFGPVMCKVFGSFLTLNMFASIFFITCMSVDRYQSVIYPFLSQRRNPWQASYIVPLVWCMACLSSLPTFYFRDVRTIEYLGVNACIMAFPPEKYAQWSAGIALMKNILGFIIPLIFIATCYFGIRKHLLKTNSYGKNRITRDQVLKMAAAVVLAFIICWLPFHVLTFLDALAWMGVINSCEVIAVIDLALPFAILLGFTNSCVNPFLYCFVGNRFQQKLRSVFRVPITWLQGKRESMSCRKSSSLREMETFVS
Sequence of AT1 Receptor (AT1R) (P30556 whole entry): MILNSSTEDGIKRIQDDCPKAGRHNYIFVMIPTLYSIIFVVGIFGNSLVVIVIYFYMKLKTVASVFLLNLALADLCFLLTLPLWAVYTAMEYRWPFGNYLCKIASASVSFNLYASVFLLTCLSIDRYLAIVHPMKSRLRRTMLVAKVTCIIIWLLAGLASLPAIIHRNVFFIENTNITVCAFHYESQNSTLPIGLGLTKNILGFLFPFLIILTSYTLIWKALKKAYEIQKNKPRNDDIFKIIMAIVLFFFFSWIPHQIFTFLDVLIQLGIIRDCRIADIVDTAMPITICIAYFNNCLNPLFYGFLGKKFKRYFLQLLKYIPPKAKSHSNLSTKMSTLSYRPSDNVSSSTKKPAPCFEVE

Broadly, the IC50 is the concentration at which inhibition is half-maximal. The low end stands for greater potency in that assay, the high end for weaker potency in that assay. On to `CN(Cc1ccc(Cl)cc1)C(=O)N1[C@H]2CC[C@@H]1[C@@H](C(=O)O)N(C(=O)N(c1ccccc1)c1ccccc1)C2` [Compound C150, (1R,2S,5S)-8-((4-chlorobenzyl) (methyl)carbamoyl)-3-(diphenylcarbamoyl)-3,8-diazabicyclo [3.2.1]octane-2-carboxylic acid], for which the 50% inhibitory concentration (IC50) in test [1] was 0.00982 µM; in test [2], greater than 10 µM.

Regarding `O=C(O)[C@@H]1[C@H]2CC[C@@H](CN1C(=O)C(c1ccccc1)c1ccccc1)N2C(=O)C(c1ccccc1)c1ccccc1` [Compound C1, (1R,2S,5S)-3,8-bis(2,2-diphenylacetyl)-3,8-diazabicyclo[3.2.1]octane-2-carboxylic acid], the IC50 is 0.00667 µM in test [1] and greater than 10 µM in test [2].

With `O=C(O)[C@H]1[C@@H]2CC[C@H](CN1C(=O)N(c1ccccc1)c1ccccc1)N2C(=O)N(c1ccccc1)c1ccccc1` [Compound C14, (1S,2R,5R)-3,8-bis (diphenylcarbamoyl)-3,8-diazabicyclo [3.2.1]octane-2-carboxylic acid], the values for the IC50 in test [1] and in test [2] were 0.0294 µM and greater than 10 µM, respectively.

For the compound `O=C(O)[C@@H]1[C@H]2CC[C@@H](CN1C(=O)C(c1ccccc1)c1ccccc1)N2C(=O)OCc1ccccc1` [Compound C34, (1R,2S,5S)-8-((benzyloxy)carbonyl)-3-(2,2-diphenylacetyl)-3,8-diazabicyclo[3.2.1]octane-2-carboxylic acid], the IC50 in test [1] was 0.0352 µM; in test [2], greater than 10 µM.

`COc1ccc(CN(C)C(=O)N2[C@H]3CC[C@@H]2[C@@H](C(=O)O)N(C(=O)N(c2ccccc2)c2ccccc2)C3)cc1` [Compound C166]: the concentration for half-maximal inhibition (IC50) in test [1] is 0.00442 µM; in test [2] it was greater than 10 µM.

For the compound `CN(Cc1ccccc1)C(=O)N1[C@H]2CC[C@@H]1[C@@H](C(=O)O)N(C(=O)C(c1ccccc1)c1ccccc1)C2` [Compound C82, (1R,2S,5S)-8-(benzyl(methyl)carbamoyl)-3-(2,2-diphenylacetyl)-3,8-diazabicyclo[3.2.1]octane-2-carboxylic acid], the IC50 in test [1] is 0.00398 µM; in test [2] it was greater than 10 µM.

`O=C(O)[C@@H]1C2CCC(CC2OCc2ccccc2)N1C(=O)C(c1ccccc1)c1ccccc1` (stereo in doubt) [Compound C283, (1S,3S,4S)-5-(benzyloxy)-2-(2,2-diphenylacetyl)-2-azabicyclo[2.2.2]octane-3-carboxylic acid]: the values for the IC50 in test [1] and in test [2] were 0.0463 µM and greater than 10 µM, respectively.

With `CN(Cc1ccccn1)C(=O)N1[C@H]2CC[C@@H]1[C@@H](C(=O)O)N(C(=O)C(c1ccccc1)c1ccccc1)C2` [Compound C123, (1R,2S,5S)-3-(2,2-diphenylacetyl)-8-(methyl(pyridine-2-ylmethyl)carbamoyl)-3,8-diazabicyclo [3.2.1]octane-2-carboxylic acid], the values for the IC50 in test [1] and in test [2] were 0.0117 µM and greater than 10 µM, respectively.

For `O=C(O)[C@@H]1[C@H]2CC[C@@H](CN1C(=O)N(c1ccccc1)c1ccccc1)N2C(=O)N(c1ccccc1)c1ccccc1` [Compound C5, (1R,2S,5S)-3,8-bis (diphenylcarbamoyl)-3,8-diazabicyclo [3.2.1]octane-2-carboxylic acid], the figures for the IC50 in test [1] and in test [2] were 0.0153 µM and greater than 10 µM, respectively.

On to `CCN(Cc1ccccc1)C(=O)N1[C@H]2CC[C@@H]1[C@@H](C(=O)O)N(C(=O)N(c1ccccc1)c1ccccc1)C2` [Compound C155, (1R,2S,5S)-8-(benzyl (ethyl)carbamoyl)-3-(diphenylcarbamoyl)-3,8-diazabicyclo [3.2.1]octane-2-carboxylic acid], for which the IC50 in test [1] was 0.00903 µM; in test [2], greater than 10 µM.

Turning to `O=C(O)[C@@H]1[C@H]2CC[C@@H](CN1C(=O)N(c1ccccc1)c1ccccc1)N2C(=O)OCc1ccccc1` [Compound C37, (1R,2S,5S)-8-((benzyloxy)carbonyl)-3-(diphenylcarbamoyl)-3,8-diazabicyclo [3.2.1]octane-2-carboxylic acid], the values for the concentration for half-maximal inhibition (IC50) in test [1] and in test [2] were 0.0553 µM and greater than 10 µM, respectively.

For the compound `O=C(O)[C@@H]1[C@H]2CC[C@@H](CN1C(=O)C(c1ccccc1)c1ccccc1)N2C(=O)Nc1ccccc1` [Compound C83, (1R,2S,5S)-3-(2,2-diphenylacetyl)-8-(phenylcarbamoyl)-3,8-diazabicyclo [3.2.1]octane-2-carboxylic acid], the IC50 in test [1] was 0.0181 µM; in test [2] it was greater than 10 µM.

On to `CC(C(=O)N1C[C@@H]2CC[C@H]([C@H]1C(=O)O)N2C(=O)OCc1ccccc1)(c1ccccc1)c1ccccc1` [Compound C157], for which the values for the 50% inhibitory concentration (IC50) in test [1] and in test [2] were 0.0271 µM and greater than 10 µM, respectively.

Take `O=C(O)[C@@H]1[C@H]2CC[C@@H](CN1C(=O)N(c1ccccc1)c1ccccc1)N2C(=O)C(c1ccccc1)c1ccccc1` [Compound C12, (1R,2S,5S)-8-(2,2-diphenylacetyl)-3-(diphenylcarbamoyl)-3,8-diazabicyclo [3.2.1]octane-2-carboxylic acid]: the IC50 was 0.0171 µM in test [1] and greater than 10 µM in test [2].

Consider `CN(Cc1ccc(C#N)cc1)C(=O)N1[C@H]2CC[C@@H]1[C@H](C(=O)O)N(C(=O)N(c1ccccc1)c1ccccc1)C2` [Compound C167, (1R,2R,5S)-8-((4-cyanobenzyl) (methyl)carbamoyl)-3-(diphenylcarbamoyl)-3,8-diazabicyclo [3.2.1]octane-2-carboxylic acid], for which the 50% inhibitory concentration (IC50) in test [1] is 0.0189 µM; in test [2], greater than 10 µM.

Consider `O=C(O)[C@@H]1[C@H]2CC[C@@H](CN1C(=O)C(c1ccccc1)c1ccccc1)N2C(=O)NCc1ccccc1` [Compound C78, (1R,2S,5S)-8-(benzylcarbamoyl)-3-(2,2-diphenylacetyl)-3,8-diazabicyclo[3. 2.1]octane-2-carboxylic acid], for which the IC50 in test [1] was 0.055 µM; in test [2] it was greater than 10 µM.

`O=C(O)[C@H]1[C@@H]2CC[C@H](CN1C(=O)N1c3ccccc3C=Cc3ccccc31)N2C(=O)C(c1ccccc1)c1ccccc1` [Compound C71, (1S,2R,5R)-3-(5H-dibenzo[bf]azepine-5-carbonyl)-8-(2,2-diphenylacetyl)-3,8-diazabicyclo[3. 2.1]octane-2-carboxylic acid]: the figures for the IC50 in test [1] and in test [2] were 0.0504 µM and greater than 10 µM, respectively.

`O=C(O)[C@@H]1[C@H]2CC[C@@H](CN1C(=O)N1c3ccccc3C=Cc3ccccc31)N2C(=O)C(c1ccccc1)c1ccccc1` [Compound C10, (1R,2S,5S)-3-(5H-dibenzo[b,f]azepine-5-carbonyl)-8-(2,2-diphenylacetyl)-3,8-diazabicyclo [3.2.1]octane-2-carboxylic acid]: the half-maximal inhibitory concentration (IC50) in test [1] was 0.0588 µM; in test [2], greater than 10 µM.

With `CN(Cc1ccccc1Cl)C(=O)N1[C@H]2CC[C@@H]1[C@@H](C(=O)O)N(C(=O)N(c1ccccc1)c1ccccc1)C2` [Compound C149, (1R,2S,5S)-8-((2-chlorobenzyl) (methyl)carbamoyl)-3-(diphenylcarbamoyl)-3,8-diazabicyclo [3.2.1]octane-2-carboxylic acid], the IC50 in test [1] is 0.0166 µM; in test [2] it was greater than 10 µM.

On to `O=C(O)[C@@H]1[C@H]2CC[C@@H](CN1C(=O)C(c1ccccc1)c1ccccc1)N2C(=O)Oc1ccccc1` [Compound C79, (1R,2S,5S)-3-(2,2-diphenylacetyl)-8-(phenoxycarbonyl)-3,8-diazabicyclo[3.2.1]octane-2-carboxylic acid], for which the values for the IC50 in test [1] and in test [2] were 0.0246 µM and greater than 10 µM, respectively.

For `Cc1ccc(CN(C)C(=O)N2[C@H]3CC[C@@H]2[C@@H](C(=O)O)N(C(=O)N(c2ccccc2)c2ccccc2)C3)cc1` [Compound C162, (1R,2S,5S)-3-(diphenylcarbamoyl)-8-(methyl(4-methylbenzyl)carbamoyl)-3,8-diazabicyclo [3.2.1]octane-2-carboxylic acid], the figures for the IC50 in test [1] and in test [2] were 0.00404 µM and greater than 10 µM, respectively.

`O=C(O)[C@H]1[C@@H]2CC[C@H](CN1C(=O)C(c1ccccc1)c1ccccc1)N2C(=O)C(c1ccccc1)c1ccccc1` [Compound C2, (1S,2R,5R)-3,8-bis (2,2-diphenylacetyl)-3,8-diazabicyclo [3.2.1]octane-2-carboxylic acid]: in test [1], the IC50 was 0.00911 µM.

Take `CN(Cc1ccccc1)C(=O)N1[C@H]2CC[C@@H]1[C@@H](C(=O)O)N(C(=O)N(c1ccccc1)c1ccccc1)C2` [Compound C112, (1R,2S,5S)-8-(benzyl(methyl)carbamoyl)-3-(diphenylcarbamoyl)-3,8-diazabicyclo [3.2.1]octane-2-carboxylic acid]: the IC50 in test [1] is 0.0215 µM; in test [2] it was greater than 10 µM.
